# Patent publication US9783536B2, “Nitrogen-containing heterocyclic compound or salt thereof” (FUJIFILM Corporation, priority 2013, dated 2017)
# Read-outs that look alike come from different tables or passages of the source.
# Legend:
# [1] = target: T1, human PI3Kα protein (Homo sapiens, UniProt P42336); assay: PI3Kα enzyme assay (ADP-Glo); format: biochemical; conditions: read-out: PI3Kα enzyme inhibitory activity
# T1 construct: purchased Carna Biosciences, Inc; host or cells: baculovirus expression system
# T1 sequence (P42336 whole entry): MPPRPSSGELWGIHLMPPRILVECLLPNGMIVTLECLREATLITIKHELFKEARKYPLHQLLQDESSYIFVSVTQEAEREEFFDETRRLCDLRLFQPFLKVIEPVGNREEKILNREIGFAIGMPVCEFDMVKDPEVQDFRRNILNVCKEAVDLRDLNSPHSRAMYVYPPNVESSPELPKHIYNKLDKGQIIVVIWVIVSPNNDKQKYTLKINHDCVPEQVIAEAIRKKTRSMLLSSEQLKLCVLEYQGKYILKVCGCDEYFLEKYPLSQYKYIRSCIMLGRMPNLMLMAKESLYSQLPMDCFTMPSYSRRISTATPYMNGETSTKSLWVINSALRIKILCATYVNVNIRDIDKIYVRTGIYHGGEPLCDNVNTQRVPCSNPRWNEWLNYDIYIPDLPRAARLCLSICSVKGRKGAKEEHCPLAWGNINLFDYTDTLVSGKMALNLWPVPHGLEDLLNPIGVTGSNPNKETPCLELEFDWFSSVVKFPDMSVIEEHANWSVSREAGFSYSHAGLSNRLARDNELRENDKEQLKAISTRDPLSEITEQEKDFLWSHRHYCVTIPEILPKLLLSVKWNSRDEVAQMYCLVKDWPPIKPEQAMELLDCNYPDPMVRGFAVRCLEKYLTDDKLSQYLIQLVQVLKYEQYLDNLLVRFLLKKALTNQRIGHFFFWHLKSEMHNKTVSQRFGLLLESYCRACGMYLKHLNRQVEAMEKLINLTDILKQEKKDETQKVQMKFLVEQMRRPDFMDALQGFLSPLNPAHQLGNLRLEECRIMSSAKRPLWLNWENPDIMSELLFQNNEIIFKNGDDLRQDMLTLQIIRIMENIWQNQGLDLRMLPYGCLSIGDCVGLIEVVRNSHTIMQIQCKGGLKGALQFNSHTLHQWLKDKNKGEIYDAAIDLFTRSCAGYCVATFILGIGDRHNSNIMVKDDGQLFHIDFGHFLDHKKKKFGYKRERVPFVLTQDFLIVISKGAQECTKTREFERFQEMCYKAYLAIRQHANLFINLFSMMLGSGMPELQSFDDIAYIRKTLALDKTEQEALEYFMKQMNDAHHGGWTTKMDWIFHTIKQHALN
# T1 sequence (P27986 whole entry partner): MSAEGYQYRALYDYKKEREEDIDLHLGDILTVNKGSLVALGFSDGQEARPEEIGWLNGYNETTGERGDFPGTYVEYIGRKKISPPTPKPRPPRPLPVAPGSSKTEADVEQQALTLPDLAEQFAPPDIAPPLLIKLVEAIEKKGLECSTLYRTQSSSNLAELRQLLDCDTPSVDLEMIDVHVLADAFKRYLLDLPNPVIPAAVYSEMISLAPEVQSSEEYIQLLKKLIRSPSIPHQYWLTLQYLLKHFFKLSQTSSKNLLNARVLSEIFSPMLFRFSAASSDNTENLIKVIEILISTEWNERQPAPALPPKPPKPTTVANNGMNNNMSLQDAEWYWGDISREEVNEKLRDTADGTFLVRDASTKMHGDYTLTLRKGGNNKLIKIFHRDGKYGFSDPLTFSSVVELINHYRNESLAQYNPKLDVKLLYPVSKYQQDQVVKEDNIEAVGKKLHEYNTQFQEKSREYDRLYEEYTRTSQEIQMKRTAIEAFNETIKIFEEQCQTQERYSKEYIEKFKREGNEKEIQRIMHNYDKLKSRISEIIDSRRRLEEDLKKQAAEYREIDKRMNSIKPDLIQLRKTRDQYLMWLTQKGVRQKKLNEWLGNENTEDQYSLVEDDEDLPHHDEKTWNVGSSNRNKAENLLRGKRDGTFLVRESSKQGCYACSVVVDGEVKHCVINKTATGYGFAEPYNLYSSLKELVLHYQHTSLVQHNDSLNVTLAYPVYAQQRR
# Procedure, shortened: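 Biotinylated human PI3Kα (baculovirus-expressed, 4.5 nmol/L) pre-incubated 15 min with compound in Tris-HCl pH 7.5, MgCl2, BSA; reaction 60 min at 25° C with 50 μmol/L PIP2 and 100 μmol/L ATP final. ADP quantified by ADP-Glo luminescence; IC50 calculated.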
# [2] = target: T2, GST fusion human ERK2 protein (Homo sapiens, UniProt P28482); assay: ERK2 enzyme assay (1); format: biochemical; conditions: read-out: ERK2 enzyme inhibitory activity (1)
# T2 construct: purchased Carna Biosciences, Inc; host or cells: E. coli expression system
# T2 sequence (P28482 whole entry, the tested form may be a part): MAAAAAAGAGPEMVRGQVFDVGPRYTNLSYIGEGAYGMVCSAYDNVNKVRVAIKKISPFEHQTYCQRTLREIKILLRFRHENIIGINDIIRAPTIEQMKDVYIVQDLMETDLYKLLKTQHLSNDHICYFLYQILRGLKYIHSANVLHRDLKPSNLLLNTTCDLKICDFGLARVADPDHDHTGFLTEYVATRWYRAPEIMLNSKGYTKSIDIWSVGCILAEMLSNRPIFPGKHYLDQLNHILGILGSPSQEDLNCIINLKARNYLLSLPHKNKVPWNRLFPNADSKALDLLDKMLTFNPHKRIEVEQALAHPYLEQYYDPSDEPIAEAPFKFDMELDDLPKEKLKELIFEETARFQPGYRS
# Procedure, shortened: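 Enzyme (2.5 nmol/L, E. coli-expressed) preincubated with compound 15 min at room temperature in HEPES/MgCl2/DTT/Brij35 buffer, pH 7.5; reaction with 4.25 μmol/L FL-Peptide 8 and 43.1 μmol/L ATP for 120 min at 25 °C. Phosphorylated peptide fraction quantified by mobility-shift separation after EDTA stop; IC50 calculated.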
# [3] = test system: CHO-K1 cells; assay: CHO cell toxicity test; format: cell-based, Chinese hamster; conditions: Cricetulus griseus; CHO-K1 cells, 24 hours culture with compound, CellTiter-Glo; read-out: IC50 value (concentration at which the number of viable cells was suppressed to 50% or less)
# Procedure, shortened: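 CHO-K1 cells were cultured 24 h, then exposed 24 h to compound at final 25.00 to 0.20 μmol/L in F-12 with 2% FCS. Viability read by CellTiter-Glo luminescence; inhibition % = 100 − (treated/untreated signal)×100.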
# [4] = target: T2, GST fusion human ERK2 protein; assay: ERK2 enzyme assay (2); format: biochemical; conditions: ERK2 enzyme assay (2); read-out: ERK2 enzyme inhibitory activity (2)
# Procedure, shortened: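 GST-tagged human ERK2 expressed in E. coli (1.25 nmol/L) was preincubated with compound for 15 min at room temperature in pH 7.5 Hepes buffer with MgCl2, DTT and Brij35. Reaction with FL-Peptide 8 (final 4.25 μmol/L) and ATP (final 1 mmol/L) ran 120 min at 25 °C; EDTA stopped it, and phosphorylated peptide was quantified by mobility-shift separation to derive IC50.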
# [5] = 4.5 nmol/L PI3Kα, PIP2 50 μmol/L, ATP 100 μmol/L
# [6] = 2.5 nmol/L ERK2, ATP 43.1 μmol/L
Structure (SMILES),IC50 [1] [nM],IC50 ([2]; ERK2 enzyme assay (1)) [nM],IC50 [3] [nM],"IC50 [1, 5] [nM]","IC50 [2, 6] [nM]",IC50 [4] [nM]
Cn1cc(-c2cnc3ccc(Nc4nnc([C@H]5CCCO5)s4)nc3c2)cn1 [Example 0232],< 1000,< 1000,≥ 25000,,,
c1csc(Nc2ccc3ncc(-c4cnn(CCCN5CCCC5)c4)cc3n2)n1 [Example 0128],,,≥ 25000,< 1000,< 1000,
CN(C)CCCn1cc(-c2cnc3ccc(Nc4nncs4)nc3c2)cn1 [Example 0301],< 1000,< 1000,≥ 25000,,,
Cn1cc(-c2cnc3ccc(Nc4nnc([C@@H]5CCCO5)s4)nc3c2)cn1 [Example 0231],< 1000,< 1000,≥ 25000,,,
CC(C)c1cnnc(Nc2ccc3ncc(-c4cnn(CCC(O)C(F)(F)F)c4)cc3n2)c1 (stereo not drawn) [Example 0400],< 1000,< 1000,≥ 25000,,,
"c1nnc(Nc2ccc3ncc(-c4cnn(CCCN5CCOCC5)c4)cc3n2)s1 [Example 0001, N-(7-(1-(3-morpholinopropyl)-1H-pyrazol-4-yl)-1,5-naphthyridin-2-yl)-1,3,4-thiadiazole-2-amine]",,,≥ 25000,< 1000,< 1000,
"CC(C)c1cnnc(Nc2ccc3ncc(-c4cnn(CCCN5CCCCC5)c4)cc3n2)c1 [Example 0373, N-(5-isopropylpyridazin-3-yl)-7-(1-(3-(piperidin-1-yl)propyl)-1H-pyrazol-4-yl)-1,5-naphthyridine-2-amine]",< 1000,< 1000,≥ 25000,,,
"CC(C)(CO)c1cnnc(Nc2ccc3ncc(-c4cnn(CCCN5CCCC5)c4)cc3n2)c1 [Example 0405, 2-methyl-2-(6-((7-(1-(3-(pyrrolidin-1-yl)propyl)-1H-pyrazol-4-yl)-1,5-naphthyridin-2-yl)amino)pyridazin-4-yl)propan-1-ol]",< 1000,< 1000,≥ 25000,,,
CC(C)c1cnnc(Nc2ccc3ncc(-c4ccncc4)cc3n2)c1 [Example 0406],< 1000,< 1000,≥ 25000,,,
c1nc2ccc(Nc3nnc(C4CCOCC4)s3)nc2cc1-c1cnn(CCCN2CCCC2)c1 [Example 0245],< 1000,< 1000,≥ 25000,,,
"O=S(=O)(Nc1nnc(Nc2ccc3ncc(-c4cnn(CCN5CCOCC5)c4)cc3n2)s1)c1ccccc1 [Example 0179, N-(5-((7-(1-(2-morpholinoethyl)-1H-pyrazol-4-yl)-1,5-naphthyridin-2-yl)amino)-1,3,4-thiadiazol-2-yl)benzene sulfonamide]",,,≥ 25000,< 1000,< 1000,
"c1n[nH]cc1Nc1cnc2ccc(Nc3nnc(C4CCC4)s3)nc2c1 [Example 0222, N^2-(5-cyclobutyl-1,3,4-thiadiazol-2-yl)-N^7-(1H-pyrazol-4-yl)-1,5-naphthyridine-2,7-diamine]",< 1000,< 1000,≥ 25000,,,
c1nc2ccc(Nc3nnc(C4CC4)s3)nc2cc1-c1cnn(CCCN2CCCC2)c1 [Example 0362],< 1000,< 1000,≥ 25000,,,
c1nc2ccc(Nc3nnc(C4CCOC4)s3)nc2cc1-c1cnn(CCCN2CCCC2)c1 (stereo not drawn) [Example 0238],< 1000,< 1000,≥ 25000,,,
"c1nc2ccc(Nc3cc(C4CCOC4)cnn3)nc2cc1-c1cnn(CCCN2CCCC2)c1 (stereo not drawn) [Example 0019, 7-(1-(3-(Pyrrolidin-1-yl)propyl)-1H-pyrazol-4-yl)-N-(5-(tetrahydrofuran-3-yl)pyridazin-3-yl)-1,5-naphthyridine-2-amine]",,,≥ 25000,< 1000,< 1000,
c1nc2ccc(Nc3nnc([C@@H]4CCCO4)s3)nc2cc1-c1cnn(CCCN2CCCC2)c1 [Example 0233],< 1000,< 1000,≥ 25000,,,
Cc1nnc(Nc2ccc3ncc(-c4cnn(CCCN(C)C)c4)cc3n2)s1 [Example 0302],< 1000,< 1000,≥ 25000,,,
"CCCc1nn(CCCN2CCOCC2)cc1-c1cnc2ccc(Nc3cc(C(C)C)cnn3)nc2c1 [Example 0390, N-(5-isopropylpyridazin-3-yl)-7-(1-(3-morpholinopropyl)-3-propyl-1H-pyrazol-4-yl)-1,5-naphthyridine-2-amine]",< 1000,< 1000,≥ 25000,,,

Structure (SMILES),IC50 [1] [nM],IC50 ([2]; ERK2 enzyme assay (1)) [nM],IC50 [3] [nM],"IC50 [1, 5] [nM]","IC50 [2, 6] [nM]",IC50 [4] [nM]
CC(C)c1cnnc(Nc2ccc3ncc(-c4cnn(CCOC5CCOCC5)c4)cc3n2)c1 [Example 0395],< 1000,< 1000,≥ 25000,,,
"c1nc2ccc(Nc3nnc(C4CCCO4)s3)nc2cc1-c1cnn(CCCN2CCCC2)c1 (stereo not drawn) [Example 0325, N-(7-(1-(3-(pyrrolidin-1-yl)propyl)-1H-pyrazol-4-yl)-1,5-naphthyridin-2-yl)-5-(tetrahydrofuran-2-yl)-1,3,4-thiadiazole-2-amine]",< 1000,< 1000,≥ 25000,,,
OCCOc1cncc(Nc2cnc3ccc(Nc4nnc(C5CCCC5)s4)nc3c2)c1 [Example 0097],,,≥ 25000,< 1000,< 1000,
c1nc2ccc(Nc3nnc([C@H]4CCCO4)s3)nc2cc1-c1cnn(CCCN2CCCC2)c1 [Example 0237],< 1000,< 1000,≥ 25000,,,
"c1nc2ccc(Nc3cc(C4CC4)cnn3)nc2cc1-c1cnn(CCCN2CCOCC2)c1 [Example 0298, N-(5-cyclopropylpyridazin-3-yl)-7-(1-(3-morpholinopropyl)-1H-pyrazol-4-yl)-1,5-naphthyridine-2-amine]",< 1000,< 1000,≥ 25000,,,
Cn1cc(-c2cnc3ccc(Nc4cccnn4)nc3c2)cn1 [Example 0037],,,≥ 25000,1000 to 10000,< 1000,
"Cc1nn(C)cc1-c1cnc2ccc(Nc3cc(C(C)C)cnn3)nc2c1 [Example 0757, 7-(1,3-dimethyl-1H-pyrazol-4-yl)-N-(5-isopropylpyridazin-3-yl)-1,5-naphthyridine-2-amine]",< 1000,,≥ 25000,,,< 1000
Cc1cc(-c2nn(C)cc2-c2cnc3ccc(Nc4cc(C(C)C)cnn4)nc3c2)ccn1 [Example 0738],< 1000,,≥ 25000,,,< 1000
CCc1nnc(Nc2ccc3ncc(-c4cnn(CCCN5CCCC5)c4)cc3n2)s1 [Example 0363],< 1000,< 1000,≥ 25000,,,
CC(C)c1cnnc(Nc2ccc3ncc(-c4cnn(Cc5cocn5)c4)cc3n2)c1 [Example 0450],< 1000,,≥ 25000,,,< 1000
"COC1CN(CC(Cn2cc(-c3cnc4ccc(Nc5cc(C(C)C)cnn5)nc4c3)cn2)OC)C1 (stereo not drawn) [Example 0812, N-(5-isopropylpyridazin-3-yl)-7-(1-(2-methoxy-3-(3-methoxyazetidin-1-yl)propyl)-1H-pyrazol-4-yl)-1,5-naphthyridine-2-amine]",< 1000,,≥ 25000,,,< 1000
"CCN(CC)CCCn1cc(-c2cnc3ccc(Nc4cc(C(C)C)cnn4)nc3c2)cn1 [Example 0374, 7-(1-(3-(Diethylamino)propyl)-1H-pyrazol-4-yl)-N-(5-isopropylpyridazin-3-yl)-1,5-naphthyridine-2-amine]",< 1000,< 1000,≥ 25000,,,
"CC(C)c1cnnc(Nc2ccc3ncc(-c4cnn(CC(O)CN5CCCC5)c4)cc3n2)c1 (stereo not drawn) [Example 0724, 1-(4-(6-((5-Isopropylpyridazin-3-yl)amino)-1,5-naphthyridin-3-yl)-1H-pyrazol-1-yl)-3-(pyrrolidin-1-yl)propan-2-ol]",< 1000,,≥ 25000,,,< 1000
COCC1CN(CCCn2cc(-c3cnc4ccc(Nc5cc(C(C)C)cnn5)nc4c3)cn2)CCO1 (stereo not drawn) [Example 0679],< 1000,,≥ 25000,,,< 1000
"CC(C)c1cnnc(Nc2ccc3ncc(-c4cnn(CCCN5CC6CC(C5)O6)c4)cc3n2)c1 [Example 0637, 7-(1-(3-(6-Oxa-3-azabicyclo[3.1.1]heptan-3-yl)propyl)-1H-pyrazol-4-yl)-N-(5-isopropylpyridazin-3-yl)-1,5-naphthyridine-2-amine]",< 1000,,≥ 25000,,,< 1000
CC(C)c1cnnc(Nc2ccc3ncc(-c4cnn(CC5CCOCC5)c4)cc3n2)c1 [Example 0482],< 1000,,≥ 25000,,,< 1000
COC1CN(CCCn2cc(-c3cnc4ccc(Nc5cc(C(C)C)cnn5)nc4c3)cn2)C1 [Example 0630],< 1000,,≥ 25000,,,< 1000
CC(C)c1cnnc(Nc2ccc3ncc(-c4cnn(CCCN5CCOCC5CO)c4)cc3n2)c1 (stereo not drawn) [Example 0685],< 1000,,≥ 25000,,,< 1000
